We go through three compounds from patent publication US9089601B2, “Pre- and intra-operative imaging of bladder cancer” (University of Rochester, priority 2006, dated 2015).

One data set has as its system mammals. The following applies: cited from earlier work; for neuronal toxicity: used in mammals.
For data set [1], the system named is UPII-SV40T transgenic mice. Nature of the data set: Intravesical instillation of ICG and intraoperative NIRF identification of lymphatic channels and SLNs in bladder tumor mice. The class given is in vivo.
For data set [2] the following is noted: cited from earlier work.

As to `N=C(N)c1ccc(/C=C/c2ccc(C(=N)N)cc2O)cc1` [Fluorogold], in the data set with mammals, the neuronal toxicity result is given as “low evidence of neuronal toxicity”.
For the compound `CC1(C)C(/C=C/C=C/C=C/C=C2\N(CCCCS(=O)(=O)O)c3ccc4ccccc4c3C2(C)C)=[N+](CCCCS(=O)(=O)[O-])c2ccc3ccccc3c21` [ICG, indocyanine green], in data set [1] (12 female mice, intravesical ICG 2.5 mg/mf, 100 or 200 μl, NIRF 20, 30 and 60 minutes later), the “animals showing draining lymphatic channels and SLNs” value is listed as 12 animals. In data set [1] (dye instilled at 10, 20, 30, or 60 minutes before imaging), the “visualization of SLNs by intraoperative imaging” value is “successfully visualized”. Also, the “sentinel nodes detected per animal” value in data set [1] (in all animals, intravesical ICG, NIRF) is “At least two”. Further, the “location of SLNs” value in data set [1] (intravesical ICG, NIRF) is reported as “common or external iliac lymphatic chains”. Besides, the “fluorescence of lymphatic channels and nodes following instillation of the dye into the bladder” value in data set [1] (mouse, FIG. 1B and 1C) is “fluorescing of the mouse's lymphatic channels and nodes on iliac bifurcation”. The metabolism entry in data set [2] (in the body) was “not metabolized”. Also, in data set [2] (in vivo), the excretion entry was “excreted exclusively by the liver”; the “reabsorption from the intestine / enterohepatic recirculation” value is “not reabsorbed from the intestine and does not undergo enterohepatic recirculation”. Besides, the toxicity entry with mammals (in vivo) is listed as “low toxicity”. Further, the neuronal toxicity entry with mammals is recorded as “low evidence of neuronal toxicity”.
Consider Fast Blue, for which the neuronal toxicity result in the data set on mammals was “low evidence of neuronal toxicity”.
